Data: BigSolDB 2.1

CC(=O)c1c(C)c([N+](=O)[O-])c(C(C)(C)C)c([N+](=O)[O-])c1C
solubility (mole fraction)
Settings	278.15 K	283.15 K	288.15 K	293.15 K	298.15 K	303.15 K	308.15 K	313.15 K	318.15 K
in DMAc	0.113	0.129	0.147	0.165	0.185	0.206	0.228	0.252	0.278
in DMF	0.0732	0.0856	0.0993	0.115	0.131	0.149	0.169	0.191	0.215
in THF	0.148	0.165	0.183	0.202	0.221	0.243	0.266	0.288	0.313
in acetonitrile	0.0141	0.0174	0.0213	0.0259	0.0314	0.0379	0.0455	0.0545	0.0644
in cyclohexane	0.00275	0.00348	0.00439	0.00547	0.0068	0.00853	0.0104	0.0127	0.0153
in ethanol	0.00201	0.00251	0.00304	0.00364	0.00435	0.00521	0.00622	0.00743	0.00869
in ethyl acetate	0.065	0.0744	0.0846	0.0959	0.108	0.121	0.136	0.151	0.168
in isopropanol	0.00159	0.002	0.00259	0.00332	0.00414	0.00521	0.00651	0.008	0.00982
in methanol	0.00127	0.00155	0.00188	0.00227	0.00272	0.00324	0.00385	0.00455	0.00533
in n-butanol	0.00299	0.0037	0.00455	0.00557	0.00679	0.00823	0.00993	0.0119	0.0141
in n-heptane	0.00184	0.00228	0.00281	0.00344	0.00419	0.00508	0.00613	0.00737	0.00878
in n-hexane	0.00164	0.00202	0.00248	0.00302	0.00365	0.0044	0.00527	0.00629	0.00744
